Reference: patent publication US8999957B2, “Heterocyclic compounds as ERK inhibitors” (Merck Sharp & Dohme Corp., priority 2010, dated 2015)
“And” between values parts separate entries of the source, which are not always exact repeats. Equal values may be shown once. Read-outs that look alike come from different tables or passages of the source.

Assays:
ERK protein = ERK protein (Mus musculus, UniProt P63085); assay: TdF (Temperature Dependence Fluorescence, thermal shift) assay for ERK; assay type: binding; settings: 3 μM ERK protein, uncertainty estimated ±50%, read-out: Kd TdF
Source text: Assays: TdF Assay for ERK […] The TdF assay was mainly conducted in the 96-well based CHROMO-4 real time fluorescence plate reader (BioRad). The Sypro Orange (Sigma-Aldrich), environmentally sensitive fluorescence dye, was used to monitor the protein folding-unfolding transition. Protein-ligand binding was gauged by the change (or shift) in the unfolding transition temperature (ΔTm) acquired at protein alone with respect to protein in the presence of ligand of interest. Compound of interest was first prepared in DMSO stock (typical concentration: 10 mM). […] Final percentage of DMSO resided in the sample was 2%. The sample plate was heated from 30° C. to 90° C. with thermal ramping rate of 1° C./min. […] The instrument thermal stability was ±0.2° C. The melting temperatures (Tm) for ERK protein under aforementioned conditions occurred at 61.0±0.2° C. and 64.8±02° C. respectively. Theoretical Basis for TdF-Based Ligand Binding Affinity Constant […] In brief, the binding constant of the ligand at the Tm is expressed as below: [formula] where T0 is the midpoint of unfolding for unliganded protein and Tm is the midpoint of unfolding in presence of ligand. [LTm] is free ligand at Tm. The ΔHu and ΔCpu are the enthalpy of unfolding and heat capacity change of unfolding for the protein respectively. Following algorithm derived by Winsor and coworker, the T0, ΔHu and ΔCpu can be determined separately from nonlinear regression fitting the protein alone melting curve: Where F(T) is the observed fluorescence intensity at any temperature T, Yn and Yu are the predicted fluorescence intensities for fully folded and unfolded protein, respectively; mn and mu are slope correction for changes in Yn and Yu with respect to changes in temperature (analogously replace T0 with Tm in the above equation for liganded protein to yield Tm). […] [formula] where ΔHL (T) is the van't Hoff enthalpy of ligand binding at temperature T and ΔCpL is the heat capacity upon ligand binding. For simplicity, the ΔCpL and ΔHL (T) were set to zero and −7 kcal/mol respectively.

[1] = target: fully phosphorylated, active Mouse ERK2 protein (Mus musculus (Mouse), UniProt P63085); assay: Active ERK2 (aERK) IMAP assay, condition 1; assay type: biochemical; settings: aERK assay condition 1, 30 μM ATP
Protocol: Active ERK2 (aERK) Assay: (Unless Indicated Otherwise, the Data Provided for aERK was obtained using Condition 1)
Activated ERK2 activity was also determined in the IMAP assay format using the procedure outlined above. […] Reactions proceeded for 30 minutes before termination by addition of 60 μl IMAP detection beads in binding buffer. Plates were read as above after 30 minute binding equilibration.

[2] = target: fully phosphorylated, mouse aERK2 enzyme (Mus musculus (Mouse), UniProt P63085); assay: Active ERK2 (aERK) IMAP-FP assay, condition 2; assay type: biochemical
Summary of the method: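 Phosphorylation by fully phosphorylated mouse ERK2 ran 40-45 min, then quenched with IMAP beads (1:1000) in binding buffer; fluorescence polarization read after 30 min binding equilibration.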

[3] = aERK assay condition 2, 30 uM ATP, read-out: aERK IC50
[4] = active ERK2, read-out: aErk2 Ic50

Sequence of fully phosphorylated, mouse aERK2 enzyme (P63085 whole entry): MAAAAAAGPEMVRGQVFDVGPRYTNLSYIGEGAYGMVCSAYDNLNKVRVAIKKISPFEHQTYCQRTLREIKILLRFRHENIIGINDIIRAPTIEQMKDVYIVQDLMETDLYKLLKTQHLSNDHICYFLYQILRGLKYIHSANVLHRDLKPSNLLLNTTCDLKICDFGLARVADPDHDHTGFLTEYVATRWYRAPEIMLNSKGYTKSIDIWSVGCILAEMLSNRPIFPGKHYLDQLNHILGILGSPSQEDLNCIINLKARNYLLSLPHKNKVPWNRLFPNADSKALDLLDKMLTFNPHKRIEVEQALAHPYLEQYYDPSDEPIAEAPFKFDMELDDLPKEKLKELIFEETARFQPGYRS
Sequence of fully phosphorylated, active Mouse ERK2 protein (P63085 whole entry): as above
Sequence of ERK protein (P63085 2-358 limits assumed): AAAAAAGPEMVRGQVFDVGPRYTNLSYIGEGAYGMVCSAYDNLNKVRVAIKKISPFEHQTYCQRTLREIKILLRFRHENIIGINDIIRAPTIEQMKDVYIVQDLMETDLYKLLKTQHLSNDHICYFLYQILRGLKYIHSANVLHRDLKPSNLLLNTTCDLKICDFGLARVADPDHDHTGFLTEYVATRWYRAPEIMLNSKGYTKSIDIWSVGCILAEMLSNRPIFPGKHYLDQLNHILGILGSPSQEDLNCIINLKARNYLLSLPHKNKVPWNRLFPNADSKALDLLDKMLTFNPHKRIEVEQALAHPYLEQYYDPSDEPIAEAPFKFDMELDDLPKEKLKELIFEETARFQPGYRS

Row | Molecule | Kd (ERK protein) | IC50 [1] | IC50 [2, 4] | further results
1 | O=C(NC1CNCCC1c1cccc(F)c1)c1ccc2[nH]nc(-c3ccncc3)c2c1 (centres unmarked) | 106 nM |  |  | 
2 | O=C(NC1CCCCNC1=O)c1ccc2[nH]nc(-c3ccncc3)c2c1 (centres unmarked) | 73 nM |  |  | 
3 | O=C(NC1CN(C(=O)OCc2ccccc2)CCNC1=O)c1ccc2[nH]nc(-c3ccncc3)c2c1 (centres unmarked) | 290 nM |  |  | 
4 | O=C(Nc1ccc2[nH]nc(-c3ccncc3)c2c1)C1CNCC(c2ccccc2)C1 (centres unmarked) | 8 nM |  |  | 
5 | O=C(NC1CNCC(c2ccccc2)C1)c1ccc2[nH]nc(-c3ccncc3)c2c1 (centres unmarked) | 0.8 nM |  |  | 
6 | O=C(N[C@@H]1CCCN(Cc2ccccn2)C1)c1ccc2[nH]nc(-c3ccc4c(c3)CCO4)c2c1 | 9.2 nM | 591 nM |  | 
7 | N#Cc1ccc(CN2CCC[C@@H](NC(=O)c3ccc4[nH]nc(-c5ccc6c(c5)CCO6)c4c3)C2)cc1 | 82 nM | 1000 nM |  | 
8 | O=C(N[C@@H]1CCCN(Cc2ccncc2)C1)c1ccc2[nH]nc(-c3ccc4c(c3)CCO4)c2c1 | 76 nM | 626 nM |  | 
9 | O=C(N[C@@H]1CCCN(Cc2nccs2)C1)c1ccc2[nH]nc(-c3ccc4c(c3)CCO4)c2c1 | 10.5 nM | 251 nM |  | 
10 | CN(C)c1ccc(CN2CCC[C@@H](NC(=O)c3ccc4[nH]nc(-c5ccc6c(c5)CCO6)c4c3)C2)cc1 | 1000 nM | 1000 nM |  | 
11 | COc1cccc(F)c1CN1C[C@H](C)C[C@@H](NC(=O)c2ccc3[nH]nc(-c4ccc5nn(C)cc5c4)c3c2)C1 | 0.39 nM | 217 nM |  | 
12 | COc1cccc(F)c1CN1CC(NC(=O)c2ccc3[nH]nc(-c4ccnc(C)c4)c3c2)CC(OC)C1 (centres unmarked) | 0.42 nM | 39.1 nM |  | 
13 | COc1cccc(F)c1CN1CCC[C@@H](NC(=O)c2ccc3[nH]nc(-c4ccc5nc(C)sc5c4)c3c2)C1 | 0.1 nM | 78.5 nM |  | 
14 | COc1cccc(F)c1CN1C[C@@H](NC(=O)c2ccc3[nH]nc(-c4ccnc(C)c4)c3c2)CCC1=O | 4.12 nM | 992 nM |  | 
15 | COc1ccnc(NC(=O)[C@@H]2CC[C@@H](NC(=O)c3ccc4[nH]nc(-c5ccnc(C)c5)c4c3)CN2Cc2c(F)cccc2OC)c1 [N-{(3R,6S)-1-(2-fluoro-6-methoxybenzyl)-6-[(4-methoxypyridin-2-yl)carbamoyl]piperidin-3-yl}-3-(2-methylpyridin-4-yl)-1H-indazole-5-carboxamide] |  |  |  | IC50 [2, 3]: 50.2 nM
16 | COc1cccc(F)c1CN1C[C@H](NC(=O)c2ccc3[nH]nc(-c4ccnc(C)c4)c3c2)CC[C@H]1C(=O)N1CCN(C)CC1 [N-{(3R,6S)-1-(2-fluoro-6-methoxybenzyl)-6-[(4-methylpiperazin-1-yl)carbonyl]piperidin-3-yl}-3-(2-methylpyridin-4-yl)-1H-indazole-5-carboxamide] |  |  | 32.5 nM | 
17 | COc1cccc(F)c1CN1C[C@H](NC(=O)c2ccc3[nH]nc(-c4ccnc(C)c4)c3c2)CC[C@H]1C(=O)Nc1ccc(C)nc1 [N-{(3R,6S)-1-(2-fluoro-6-methoxybenzyl)-6-[(6-methylpyridin-3-yl)carbamoyl]piperidin-3-yl}-3-(2-methylpyridin-4-yl)-1H-indazole-5-carboxamide] |  |  |  | IC50 [2, 3]: 6.7 nM
18 | COc1cccc(F)c1CN1C[C@H](NC(=O)c2ccc3[nH]nc(-c4ccnc(C)c4)c3c2)CC[C@H]1C(=O)N(C)OC [N-{(3R,6S)-1-(2-fluoro-6-methoxybenzyl)-6-[methoxy(methyl)carbamoyl]piperidin-3-yl}-3-(2-methylpyridin-4-yl)-1H-indazole-5-carboxamide] |  |  | 11.2 nM | 
19 | CCCN(C)C(=O)[C@@H]1CC[C@@H](NC(=O)c2ccc3[nH]nc(-c4ccnc(C)c4)c3c2)CN1Cc1c(F)cccc1OC [N-{(3R,6S)-1-(2-fluoro-6-methoxybenzyl)-6-[methyl(propyl)carbamoyl]piperidin-3-yl}-3-(2-methylpyridin-4-yl)-1H-indazole-5-carboxamide] |  |  | 57 nM | 
20 | COc1cccc(F)c1CN1C[C@H](NC(=O)c2ccc3[nH]nc(-c4ccnc(C)c4)c3c2)CC[C@H]1C(=O)N1CCN(C(=O)OC2CCCC2)CC1 [cyclopentyl 4-{[(2S,5R)-1-(2-fluoro-6-methoxybenzyl)-5-({[3-(2-methylpyridin-4-yl)-1H-indazol-5-yl]carbonyl}amino)piperidin-2-yl]carbonyl}piperazine-1-carboxylate] |  |  | 31 nM | 
21 | CN1CC(NC(=O)c2ccc3[nH]nc(-c4ccncc4)c3c2)CC(c2ccccc2)C1 (centres unmarked) [drawing 219] | 1.4 nM |  |  | 
22 | CCOC(=O)N1CCN(C(=O)[C@@H]2CC[C@@H](NC(=O)c3ccc4[nH]nc(-c5ccnc(C)c5)c4c3)CN2Cc2c(F)cccc2OC)CC1 [ethyl 4-{[(2S,5R)-1-(2-fluoro-6-methoxy-benzyl)-5-({[3-(2-methylpyridin-4-yl)-1H-indazol-5-yl]carbonyl}amino)piperidin-2-yl]carbonyl}piperazine-1-carboxylate] |  |  | 20.5 nM | 
23 | COC(=O)N1CCN(C(=O)[C@@H]2CC[C@@H](NC(=O)c3ccc4[nH]nc(-c5ccnc(C)c5)c4c3)CN2Cc2c(F)cccc2OC)CC1 [methyl 4-{[(2S,5R)-1-(2-fluoro-6-methoxy-benzyl)-5-({[3-(2-methylpyridin-4-yl)-1H-indazol-5-yl]carbonyl}amino)piperidin-2-yl]carbonyl}piperazine-1-carboxylate] |  |  | 17.9 nM | 
24 | COc1cccc(F)c1CN1C[C@H](NC(=O)c2ccc3[nH]nc(-c4ccnc(C)c4)c3c2)CC[C@H]1C(=O)N1CCN(C(=O)OC(C)(C)C)CC1 [tert-butyl 4-{[(2S,5R)-1-(2-fluoro-6-methoxy-benzyl)-5-({[3-(2-methylpyridin-4-yl)-1H-indazol-5-yl]carbonyl}amino)piperidin-2-yl]carbonyl}piperazine-1-carboxylate] |  |  | 7 nM | 
25 | COc1cccc(F)c1CN1C[C@H](NC(=O)c2ccc3[nH]nc(-c4ccnc(C)c4)c3c2)CC[C@H]1C(=O)NCCNC(=O)OC(C)(C)C [tert-butyl [2-({[(2S,5R)-1-(2-fluoro-6-methoxybenzyl)-5-({[3-(2-methylpyridin-4-yl)-1H-indazol-5-yl]carbonyl}amino)piperidin-2-yl]carbonyl}amino)ethyl]carbamate] |  |  | 18.9 nM | 
26 | COc1cccc(F)c1CN1C[C@H](NC(=O)c2ccc3[nH]nc(-c4ccnc(C)c4)c3c2)CC[C@H]1C(=O)NCCCNC(=O)OC(C)(C)C [tert-butyl [3-({[(2S,5R)-1-(2-fluoro-6-methoxybenzyl)-5-({[3-(2-methylpyridin-4-yl)-1H-indazol-5-yl]carbonyl}amino)piperidin-2-yl]carbonyl}amino)propyl]carbamate] |  |  | 16.9 nM | 
27 | COc1cccc(F)c1CN1C[C@H](NC(=O)c2ccc3[nH]nc(-c4ccnc(C)c4)c3c2)CC[C@H]1C(=O)N(C)CCCCNC(=O)OC(C)(C)C [tert-butyl {4-[{[(2S,5R)-1-(2-fluoro-6-methoxybenzyl)-5-({[3-(2-methylpyridin-4-yl)-1H-indazol-5-yl]carbonyl}amino)piperidin-2-yl]carbonyl}(methyl)amino]butyl}carbamate] |  |  | 90.3 nM | 
28 | COc1cccc(F)c1CN1C[C@H](NC(=O)c2ccc3[nH]nc(-c4ccnc(C)c4)c3c2)CC[C@H]1C(=O)N1CCN(C(=O)OC2CCOCC2)CC1 [tetrahydro-2H-pyran-4-yl 4-{[(2S,5R)-1-(2-fluoro-6-methoxybenzyl)-5-({[3-(2-methylpyridin-4-yl)-1H-indazol-5-yl]carbonyl}amino)piperidin-2-yl]carbonyl}piperazine-1-carboxylate] |  |  | 18.8 nM | 
29 | N-{(3R,6S)-1-(2-fluoro-6-methoxybenzyl)-6- [(2-methylhydrazino)carbonyl]piperidin-3- yl}-3-(2-methylpyridin-4-yl)-1H-indazole-5- carboxamide |  |  | 20.2 nM and 30 nM | 
